“Also recorded” adds a separate entry of the source.
Assays:
cannabinoid receptor CB2 [1] = target: T1, cannabinoid receptor CB2 (Homo sapiens, UniProt P34972); settings: at CB2; cited from earlier work
cannabinoid receptor CB2 [2] = target: T1, cannabinoid receptor CB2; settings: cited from earlier work
[3] = tested on: mouse model of schizophrenia; experiment: Open-field test (ambulation/crossing, rearing, grooming)
[4] = tested on: mouse model of schizophrenia; experiment: Behavior in the Phenotyper cage; type: in vivo, mice; settings: Study II
CB1 receptor = experiment: Expression level of CB1 receptor in brain tissue; type: in vivo; settings: PCP-treated vs control mice, 9 days old
Experimental: (§1) Expression Level of CB1 and CB2 Receptor in Mice at 9 Days Old (mRNA) or 2 Weeks Old (Protein)
(§2) Brain tissue of control mice (saline treated) and mice treated with PCP were analyzed in the left and right cortex and brain stem (FIGS. 7A-I; FIG. 8. Results from the cortex and brain stem were reported by the Inventors in 2011 (Anavi-Goffer et al).

CB2 receptor = experiment: Expression level of CB2 receptor in brain tissue; type: in vivo, mice; settings: for mRNA expression of CB2 receptor: PCP-treated vs control mice, 9 days old
Experimental: as §1, §2

GAD67 = experiment: Expression level of GAD67 in brain tissue; type: in vivo, mice; settings: PCP vs control; for GAD67 protein level: 2 weeks old; for GAD67 mRNA level: 9 days old
Experimental: Expression Level of GAD67 in Mice at 9 Days Old (mRNA) or 2 Weeks Old (Protein)
Brain tissue of control mice and mice treated with PCP were analyzed for GAD67, a neurochemical marker for schizophrenia (FIG. 9A-F).

MGL = experiment: Expression of MGL in brain tissue; type: in vivo; settings: PCP vs control, 2 week old mice
Excerpt: Expression of MGL in 2 Week Old Mice

[5] = tested on: mouse model of schizophrenia; experiment: Elevated Plus Maze test; settings: Study I, age 13 weeks
[6] = Body weight of mice in the neonatal PCP model
[7] = tested on: mouse model of schizophrenia; experiment: Prepulse inhibition (PPI) of the startle reflex; settings: Study I, age 8 weeks
[8] = Study III: male mice, PND 17, PCP 5 mg/kg, 1 h later BCP 10 mg/kg or BCP+AM630 10 mg/kg each, DMSO-based vehicle

T1 sequence (P34972 whole entry): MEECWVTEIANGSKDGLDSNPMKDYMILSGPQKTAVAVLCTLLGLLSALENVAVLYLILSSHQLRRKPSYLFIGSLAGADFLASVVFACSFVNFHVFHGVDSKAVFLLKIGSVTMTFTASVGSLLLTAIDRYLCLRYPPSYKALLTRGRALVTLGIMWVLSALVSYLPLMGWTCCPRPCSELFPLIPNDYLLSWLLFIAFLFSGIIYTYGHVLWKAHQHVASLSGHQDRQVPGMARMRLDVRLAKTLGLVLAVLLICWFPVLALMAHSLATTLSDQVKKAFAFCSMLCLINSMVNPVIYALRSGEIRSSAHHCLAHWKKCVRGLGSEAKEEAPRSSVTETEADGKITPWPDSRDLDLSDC

COc1ccc(C(=O)c2c(C)n(CCN3CCOCC3)c3cc(I)ccc23)cc1 [AM630, 6-Iodopravadoline, reference compound]
Ki (cannabinoid receptor CB2 [1]): 32.1 nM
activity at CB2 receptor (cannabinoid receptor CB2 [2]): potent and selective inverse agonist
open-field behaviors compared with PCP-treated mice ([3]; Study III: PCP+BCP+AM630 group, male mice, PND 17): not significantly different from these of PCP-treated mice
ambulation [3, 8]: reversed the effects of BCP on ambulation and rearing behaviors; also recorded: reversed the effect of BCP on PCP-induced inhibition of ambulation and rearing
rearing [3, 8]: reversed the effects of BCP on ambulation and rearing behaviors; also recorded: reversed the effect of BCP on PCP-induced inhibition of ambulation and rearing

c1ccc(C2(N3CCCCC3)CCCCC2)cc1 [PCP, Phencyclidine, reference compound]
frequency of entries to the wheel ([4]; PND 91, females and males): reduced the frequency of entries to the wheel
time spent in the Hidden Zone ([4]; PND 91, females and males): increased the time spend at the Hidden Zone
frequency of entries to the hidden zone ([4]; PND 91, males (FIG. 20D)): appeared to reduce the frequency of entries to the Hidden Zone in males
frequency of entries to the hidden zone ([4]; PND 105): increased the frequency of entries to the Hidden Zone
mRNA expression of CB1 receptor (CB1 receptor; brain stem): significant increase
mRNA expression of CB1 receptor (CB1 receptor; left or right cortex): No significant increase
mRNA expression of CB2 receptor (CB2 receptor; brain stem): significant increase
mRNA expression of CB2 receptor (CB2 receptor; left cortex): significant increase
mRNA expression of CB2 receptor (CB2 receptor; right cortex): no difference between control and PCP-treated mice
CB2 receptor expression level (CB2 receptor; following administration of PCP, different brain areas): selectively down-regulated in different brain areas
putative CB2 receptor expression (CB2 receptor; mice neonatally treated with phencyclidine, right cortex and basal ganglia/diencephalon): up-regulation
GAD67 protein level (GAD67; brain stem, Western blotting (FIG. 9C)): non-significant reduction
GAD67 protein level (GAD67; left cortex (FIG. 9A)): significantly decreased
GAD67 protein level (GAD67; right cortex (FIG. 9B)): did not reach a significant level
GAD67 mRNA level (GAD67; brain stem (FIG. 9F)): increased
GAD67 mRNA level (GAD67; left cortex (FIG. 9D)): no change was found at the mRNA level
GAD67 mRNA level (GAD67; right cortex (FIG. 9E)): no change was seen in the mRNA level
protein level of MGL (MGL; Western blotting (FIG. 10C)): reduction in protein level of MGL
mRNA levels of MGL (MGL; left cortex (FIG. 10A)): decreased
time spent in the distal end of the opened arm (anxiety) ([5]; females (FIGS. 6E, 6G)): reduced the time spent in the distal end of the opened arm; also recorded: induced anxiety in female mice
time spent in the distal end of the opened arm (anxiety) ([5]; males (FIGS. 6F, 6H)): increased the time spent in the distal end of the opened arm; also recorded: anxiolytic effect in male mice
body weight ([6]; Study I, ethanol-based vehicle, PND 7 / first week of life (FIG. 1B)): induced a significant reduction in body weight
body weight ([6]; Study I: PCP 5 mg/kg PND 3-16, BCP 10 mg/kg 1 h after PCP, ethanol-based vehicle, each day of injection PND 3-17 (FIG. 1A)): significantly reduce the body weight
body weight ([6]; Study I, PND 17 (FIG. 2C)): still significant
body weight ([6]; Study I, PND 35-37, males (FIG. 4A)): no significant difference in male body weight between the groups
body weight ([6]; Study II: PCP 5 mg/kg, days 3, 5, 7, 10, 12, 15 and 17, male and female (FIG. 13A)): significantly reduced body weight
body weight ([6]; Study II, PND 63 (FIG. 14B)): no significant difference in the body weight between vehicle-treated mice and PCP-treated mice
% inhibition (ability to adjust to sound stimulus, PPI) ([7]; females (FIG. 5D)): No significant difference
% inhibition (ability to adjust to sound stimulus, PPI) ([7]; males (FIG. 5B)): significant reduction in their ability to adjust to sound stimulus
rearing ([3]; Study I, ethanol-based vehicle, PND 17 (FIG. 2B)): significantly inhibited both ambulation and rearing behaviors
ambulation (exploration) ([3]; Study I: PCP 5 mg/kg, BCP 10 mg/kg, ethanol-based vehicle, PND 17 (FIG. 2A)): significantly inhibited both ambulation and rearing behaviors
ambulation ([3]; Study I, PND 17, females): more sensitive to the effect of PCP
rearing behavior ([3]; Study I, PND 17, females): more sensitive to the effect of PCP
locomotor activity ([3]; Study I, PND 17, males): appeared to be less sensitive to the treatment of PCP or PCP+BCP
rearing and exploration behaviors ([3]; Study I, PND 35-37, females (FIGS. 4E, 4F)): no differences in rearing and exploration behaviors were seen between the different groups
locomotor activity ([3]; Study I, PND 35-37, males (FIG. 4C)): significantly increased the locomotor activity compared with vehicle treatment
ambulation ([3]; Study II: PCP 5 mg/kg, PND 16 (FIG. 13B)): significantly inhibited
rearing ([3]; Study II: PCP 5 mg/kg, PND 16 (FIG. 13C)): significantly inhibited
ambulation [3, 8]: significantly inhibited both ambulation and rearing behaviors
rearing [3, 8]: significantly inhibited both ambulation and rearing behaviors

Reference: patent US11612572B2, “Treatment of schizophrenia using beta-caryophyllene and CB2 receptor agonists” (priority 2012, dated 2023)
